Data reported in a melting point compilation (Tetko et al.; mined from patent text by program, amines drawn as free bases though some values may be those of a salt).

| melting point | SMILES |
| --- | --- |
| 245 to 248 °C | CC(c1oc2ccc(F)cc2c(=O)c1-c1ccccc1F)n1cnc2c(N)ncnc21 (stereo not drawn) |
| > 290 °C | O=[N+]([O-])c1cn2c(n1)OC[C@@H](OCc1ncc(Br)cn1)C2 |
| 183 to 187 °C | Fc1cc2c(cc1F)C(n1cc[nH]c1=S)CC2 (stereo not drawn) |
| 132 to 133 °C | CC(C)n1c(=O)ccc2cnc(S(C)=O)nc21 (stereo not drawn) |
| 142 to 143 °C | COc1ccc2c(c1O)C(=O)O[C@@H]2[C@H]1c2c(cc3c(c2OC)OCO3)CCN1C |
| 78.5 to 80.5 °C | CN(C)C=CC(=O)c1ccc(Cl)cc1 |
| 204 to 208 °C | O=C(O)c1c(-c2ccc(Cl)cc2)ccnc1Br |
| 100 to 101 °C | COc1cc(OC)c2cnoc2c1 |
| 136 °C | OC(COc1ccc(Cl)cc1Cl)(COc1ccc(Cl)cc1Cl)Cn1cncn1 |
| 154 to 155 °C | Cc1cc2ncnn2nc1OCCCC(C)(C)CCS(N)(=O)=O |
| 165 to 166 °C | CCOP(=O)(Cc1ccc(C(=O)Nc2ccc(Br)cc2C#N)cc1)OCC |
| 173 to 175 °C | O=[N+]([O-])c1cc(S(=O)c2ccc(-c3ccc(Br)cc3)cc2)ccc1Cl (stereo not drawn) |
| 121 to 122 °C | COc1cc(OC)nc(-n2c(OC)nc3ccccc32)n1 |
| 141 to 142 °C | CN(C)CCn1c(=O)[nH]c2cccnc21 |
| 98 to 101 °C | CCC1CC2=C(CO1)C(=O)c1ccccc1C2=O (stereo not drawn) |
| 141 °C | C=CCON(C1=NCCN1)c1c(F)cccc1Br |
| 135 to 136 °C | COc1ccc(COc2cccc(C(=O)Nc3ccc(S(C)=O)cc3)c2)cc1 (stereo not drawn) |
| 83 to 85 °C | CC(C)COC1OC(CO)C(O)C(O)C1(O)N(C(=O)N(CCCl)N=O)C(C)C (stereo not drawn) |
| 90 to 95 °C | Cc1ccc(S(=O)(=O)NC(=O)OCCc2ccc(-n3c(CCCc4cccnc4)nc4cc(C(F)(F)F)c(Cl)cc43)cc2)cc1 |
| 74 to 75 °C | O=C(Nc1cccnc1)N1CCN(c2nc(-c3ccccc3)cs2)CC1 |
| 67 to 69 °C | N#Cc1ccc(Oc2cccc(F)c2)cc1 |
| 114 to 116 °C | [N-]=[N+]=C(C(=O)CC1CC(=O)N1)C(=O)OCc1ccc([N+](=O)[O-])cc1 (stereo not drawn) |
| 172 to 175 °C | O=C(NC1CCCCC1)c1ccc(-c2ccc3nnn(Cc4ccc5ncccc5c4)c3n2)cc1F |
| 214 to 218 °C | CCCc1ccc(C(=O)Nc2ccc3c(c2)nc(C)n3C)cc1 |
| 242 to 245 °C | CN(Cc1ccc(NC(=O)C2=Cc3cc(-c4ccc5c(c4)OCCCO5)ccc3S(=O)(=O)CC2)cc1)C1CCOCC1 |

| melting point | SMILES |
| --- | --- |
| 149 °C | CCCCc1nc(C(C)O)c(C(=O)OCC)[nH]1 (stereo not drawn) |
| 60 to 61 °C | COc1ccc2[nH]cc(C)c2c1OCc1ccccc1 |
| 114 to 115 °C | N#Cc1cc([N+](=O)[O-])ccc1N1CCC(O)CC1 |
| 128 to 130 °C | CCCc1nc(C(O)C(C)(C)C)c(C(N)=O)n1Cc1ccc(-c2ccccc2C(=O)C(=O)O)cc1 (stereo not drawn) |
| 151 °C | CNC(=S)C1(c2cccc(C)n2)CCCO1 (stereo not drawn) |
| 174 to 176 °C | C/C(=N\OCCCOc1ccc(C(=O)O)c(NC(=O)c2ccc(C(F)(F)F)cc2)c1)c1ccccc1 |
| 194 to 196 °C | COc1ccc(C2CCN(C(=O)Nc3ccc4cc(CN5CCCC5)ccc4c3)CC2)cc1 |
| 135 to 136 °C | CC(C)(C)C(=O)C=C(c1ccc(Cl)cc1)S(=O)(=O)c1ccccc1 |
| 208 to 210 °C | CNC(=O)c1cnc2cccc(C)n2c1=O |
| 90.5 to 91.5 °C | CN(C)CCSc1nnc(SCN2C(=O)c3ccccc3S2(=O)=O)s1 |
| 129 to 131 °C | CCOC(=O)c1cc(C#Cc2ccccn2)c2ccccc2n1 |
| 176 to 178 °C | Cc1nc(C)c(-c2ccnc(Nc3cccc([N+](=O)[O-])c3)n2)s1 |
| 55 °C | Cc1ncccc1C#N |
| 101 to 102 °C | Sc1nc2cc3ccccc3cc2o1 |
| 93 to 94 °C | COc1cc2c(cc1OC)C(Oc1ccc(C(F)(F)F)cc1)CN(CC#N)CC2 (stereo not drawn) |
| 205 to 208 °C | CCOC(=O)c1sc(N)nc1-c1ccc(F)cc1 |
| 317 to 323 °C | O=S1(=O)N=C(NCC2CCCCC2)Nc2cc(Cl)ccc21 |
| 85 to 90 °C | CCS(=O)(=O)c1ccc(-c2cnn(-c3cccc(Cl)c3)c(=O)c2C2CCCCC2)cc1 |
| 59 to 60 °C | Fc1cc(Cl)ccc1-n1nc2c(c1Br)CCCCC2 |
| 225 to 227 °C | Nc1nc(NCCc2ccc(O)cc2)nc2nc(-c3ccco3)nn12 |
| 187 °C | Cc1nccn1-c1cccc(C2=Nc3ccc(-c4ccccc4F)cc3NC(=O)C2)c1 |
| 84 to 87 °C | CN1CCOc2cc(O)ccc21 |
| 76 to 80 °C | COC[C@H]1CN(C2=Nc3ccccc3Nc3sc(C)cc32)CCN1C |
| 115 to 116 °C | FC(F)=C(F)Oc1ccc(C2(c3ccc(OC(F)=C(F)F)cc3)c3ccccc3-c3ccccc32)cc1 |
| 151 to 152 °C | CNC(=O)c1cccc(NC(=O)CCc2ccc(OC)cc2)c1 |

| melting point | SMILES |
| --- | --- |
| 131 to 132 °C | CC(C)c1cccc(COCCCn2ccnc2)c1NC(=O)CC1c2ccccc2Oc2ccccc21 |
| 104 to 106 °C | CS(=O)(=O)NCCc1ccc2c(c1)C(=O)c1ccccc1CO2 |
| 202 to 203 °C | Oc1ccc(-c2nnc(Cc3ccc(Oc4ccccc4)cc3)o2)cc1 |
| 73 to 75 °C | COCCn1cc(-c2ccccc2)n(C(C)=O)c1=O |
| 134 °C | CCC[C@H](C)C(=O)O[C@H]1C[C@H](O)C=C2C=C[C@H](C)[C@H](CC[C@@H]3C[C@@H](O)CC(=O)O3)[C@H]21 |
| 182 to 185 °C | N#Cc1ccc(OC2CCN(c3ccncc3)C2)cc1 (stereo not drawn) |
| 93 to 97 °C | COc1ccc(OC(C)=O)cc1[N+](=O)[O-] |
| 69 to 71 °C | CC(=O)c1cccc(-n2ccnc2)c1 |
| 119 to 120 °C | Cc1nnc(SCC(=O)C23CC4CC(CC(C4)C2)C3)n1C(C)C |
| 115 to 116 °C | Cc1ccc(-c2cc(Cl)c3ccccc3n2)cc1Cl |
| 90 to 92 °C | CCOCCn1c(COc2ccc(CO)cc2)nc2ccccc21 |
| 87.5 to 92 °C | CC=CCOc1ccc(C)c2c1C(=O)CC2 |
| 102 to 104 °C | O=[N+]([O-])c1ccc2c(ccn2Cc2ccccc2)c1 |
| 251 to 252 °C | COC(=O)NN=Cc1nc(-c2cccc(C(F)(F)F)c2)[nH]c1C |
| 137 to 140 °C | c1ccc(OCc2ccc3ccccc3n2)c(OCCCc2nnn[nH]2)c1 |
| 92 to 95 °C | CC(=O)C(=Cc1cccc([N+](=O)[O-])c1)C(C)=O |
| 118 °C | CC12CCC(C(=Cc3ccccc3[N+](=O)[O-])C1=O)C2(C)C (stereo not drawn) |
| 56 °C | O=C(O)CCc1cc(F)cc(F)c1 |
| 88 to 90 °C | CC1CCN(c2cc(F)cc(C(=O)Nc3ccc(Oc4ccnc(NC5CCCC5)n4)c4ccccc34)c2)CC1 |
| 41 to 42 °C | CCc1nc(-c2ccc(OCCCc3ccccc3)cc2)no1 |
| 142 to 144 °C | COc1cccc([C@H]2O[C@H](CC(=O)Nc3ccc(CC(=O)O)cc3)C(=O)N(CC(C)(C)CO)c3ccc(Cl)cc32)c1OC |
| 138 to 139 °C | CNC(=O)N(O)CCOc1ccc2c(c1)CCN(CCCc1ccccc1)C2=O |
| 198 to 199 °C | CCOC(=O)c1[nH]c2c(NS(=O)(=O)c3cccs3)cccc2c1C |
| 139 °C | CC(C)Nc1cccnc1N1CCN(C(=O)c2ccc(C(=O)N3CCOCC3)cc2)CC1 |
| 158 to 162 °C | Cn1c(=O)c(Oc2ccccc2F)cc2cnc(S(C)(=O)=O)nc21 |

| melting point | SMILES |
| --- | --- |
| 89.5 to 93.5 °C | CC=CCN(CCC12CC3CC(CC(C3)C1)C2)C(=O)NCCCc1ccncc1 |
| 36 to 40 °C | CCCCn1ccc(C=O)cc1=O |
| 118 to 121 °C | COc1cccc(C(=O)Nc2c[nH]nc2C(=O)NCCC#N)c1 |
| 228 to 229 °C | O=C(Cn1c(-c2ccc(Cl)cc2)nc2cccnc21)NCC1CC1 |
| 80 to 85 °C | CN(C)C(=O)c1ncccc1OC1SCC(O)C(O)C1O (stereo not drawn) |
| 180 to 181 °C | CCS(=O)(=O)c1ccc(-c2coc3ccc(-c4nnc(C)o4)cc23)c(Cl)c1 |
| 203 to 204 °C | O=C(N[C@H](Cc1ccc(F)cc1)[C@@H](O)c1ccc(F)cc1)C1CCCCC1 (racemic) |
| 86 to 88 °C | Cc1ccc(OCC2CN(C(C)C)C(=O)O2)cn1 (stereo not drawn) |
| 102 to 104 °C | CCOC(=O)c1cc(-c2ccccc2)n(-c2cccc(C(C)=O)c2)c1C |
| 104 to 106 °C | NC(=O)Cc1ccc(CCCOCCCCCCNCC(O)c2cc(Cl)c(N)c(Cl)c2)cc1 (stereo not drawn) |
| 91 to 93 °C | CCCSc1c2ccccc2nc2c1c(C)nn2-c1ccccn1 |
| 71.8 to 73.1 °C | CCOC(=O)CC(=O)c1cc(Cl)ccc1O |
| 137 to 141 °C | CCCCCCCCc1ccc(CCC(C)(CCOC(C)=O)NC(C)=O)cc1 (stereo not drawn) |
| 130 to 135 °C | Nc1ccc2c(c1N)CN(Cc1ccc(C(F)(F)F)cc1)CC2 |
| 228 to 230 °C | O=C(Nc1ccc(C(=O)N2Cc3cccn3Cc3ccccc32)cc1)c1ccccc1Cl |
| 108 to 111 °C | Clc1ccc(Oc2ccccc2Oc2ncc(Cl)cn2)nc1 |
| 91 to 92 °C | COC(=O)NCCOc1cc(Oc2ccc(C(F)(F)F)cc2Cl)ccc1[N+](=O)[O-] |
| 206 to 208 °C | CN=C(NS(=O)(=O)c1ccc(C)cc1)N1CCc2nc(N)sc2C1 |
| 73 to 75 °C | Cc1nn(-c2cccnc2)cc1NCC1CC1 |
| 208 to 211 °C | COc1cc(Nc2nc3cccc(-c4ccc(CN)cc4)c3o2)cc(OC)c1OC |
| 158 to 161 °C | O=C(c1ccc2c(c1)C(=O)N1CCC[C@H]1CO2)N1CCOCC1 |
| 235 to 237 °C | CC(=O)C1CNCc2c1[nH]c1cnc3cc(Cl)ccc3c21 (stereo not drawn) |
| 251 to 254 °C | N#Cc1c(Cl)c[nH]c1-c1ccc(Cl)cc1 |
| 267 to 270 °C | O=C1c2cccc3c([N+](=O)[O-])c(O)cc(c23)C(=O)N1O |

| SMILES | melting point |
| --- | --- |
| CCOC(=O)CN(SN(C)C(=O)Oc1cccc2c1OC(C)(C)C2)c1ccccc1 | 92 to 93 °C |
| CN(C=O)c1ccc(Cl)cc1C(=O)c1ccccc1 | 93.5 to 94.5 °C |
| CCC1N=C(c2ccccc2Cl)c2cc(CC(=O)OC)sc2-n2c(C)nnc21 (stereo not drawn) | 134 to 137 °C |
| COC(=O)/C=C/c1ccc(CC(C)NCC(O)c2cccc(F)c2)cc1 (stereo not drawn) | 75 to 110 °C |
